From the NIST ThermoML archive (doi:10.1016/j.fluid.2010.02.029)
± gives the expanded uncertainty stated by the source. One block for each compound: values may come before it.

Assays:
[1] = 101.33 kPa, Crystal, radial heat flow
[2] = xn = mol fraction of the nth substance listed; conditions: 101 kPa, radial heat flow

thermal conductivity ([1]; 382.65 K): 8.35 ± 1.2 W/m/K
thermal conductivity ([1]; 418.7 K): 8.12 ± 1.1 W/m/K
SMILES: [Bi] [bismuth]

SMILES: [Cd] [cadmium] + [Bi]
thermal conductivity ([2]; 418.7 K, Crystal, x2 = 0.5504): 12.46 ± 1.7 W/m/K
thermal conductivity ([2]; 418.7 K, Liquid, x2 = 0.5504): 10.06 ± 1.4 W/m/K

thermal conductivity ([2]; 382.65 K, Crystal, x2 = 0.527): 13.25 ± 1.9 W/m/K
thermal conductivity ([2]; 382.65 K, Liquid, x2 = 0.527): 10.6 ± 1.5 W/m/K
SMILES: [In] [indium] + [Bi]
